The conditions of data set [1]: male, Long-Evans, rat, in vivo. An excerpt:
Young adult male Long-Evans rats, 240-280 gm, were studied. Rats were anesthetized (Ketamine and Xylazine) and physiological parameters including temperature and blood gases were maintained within appropriate physiological ranges. With the head fixed in a stereotaxic frame, a 6-mm circular craniectomy was created abutting the sagittal and lambdoidal sutures. A posterior location was chosen to emphasize damage to underlying hippocampus (Vink et al., 2001; Floyd et al., 2002). […] Sham controls underwent craniectomy without percussion.

Data set [2] deals with recombinant MMP-2 and MMP-9. The data set can be described thus: Zymography of gelatinase activity of recombinant MMP. To be noted: glibenclamide 10 μM; MMP-inhibitor II 300 nM. The class given is biochemical. As to the method: In post-ischemic reperfusion of CNS tissues, catastrophic failure of capillary integrity has been attributed to the action of matrix metalloproteinases (MMP) (Wang et al., 2004).
Zymography of recombinant MMP-2 and MMP-9 (Sigma) was performed as described (Sumii and Lo, 2002).

Data set [3] deals with NCCa-ATP channels in bEnd.3 cells. The data set is described as follows: Patch clamp, Na azide-induced ATP depletion current in endothelial cells exposed to hypoxia. It is filed as cell-based, murine. To be noted: 1 μM glibenclamide; hypoxic endothelial cells. As to the method: Patch clamp of endothelial cells was performed using a nystatin-perforated patch technique, to maintain the metabolic integrity of the cells. The identity of the activated channel can be assessed by measurement of the “reversal potential”, the potential at which an ion channel current reverses from inward to outward. With physiologically relevant concentrations of ions intracellularly and extracellularly (high potassium inside, high sodium outside), the reversal potential can unambiguously distinguish between a K^+ channel current such as KATP, which reverses negative to −50 mV and a non-selective cation channel current such as NCCa-ATP, which reverses near 0 mV.
Cell culture. Endothelial cell cultures from human brain microvessels, human aorta (ScienCell Research Laboratories), and murine brain microvessels (bEnd.3; ATCC), were grown at low density using media and supplements recommended by suppliers.
In general terms: The patch-clamp technique gives a direct electrical read-out from membranes.

“Also recorded” adds a separate entry of the source.

With `COc1ccc(Cl)cc1C(=O)NCCc1ccc(S(=O)(=O)NC(=O)NC2CCCCC2)cc1` [glibenclamide], in data set [1], the “time required to achieve 90% steady-state serum drug levels” value turned out to be 3 h. Besides, in data set [2], the “gelatinase activity of recombinant MMP” value is “the same; also recorded: not affected”. In data set [3], the “block of Na azide-induced ohmic current” value was “blocked”.

Values taken from US20110263478A1, “SUR1 INHIBITORS FOR THERAPY” (priority 2008, published 2011).
